Results: patent US20120028985A1, “COMBINATIONAL THERAPY FOR TREATING AUTOIMMUNE DISEASE” (4SC AG, priority 2008, published 2012)
Values joined by “and” are separate entries in the source; they are usually repeats but may differ in a detail not shown here. Equal values may be shown once.

Key:
[1] = Toxicokinetics of formula (II) and methotrexate after individual and concomitant administration to Beagle dogs; type: in vivo; conditions: for AUC(0-inf) / Cmax / half-life: mean
Beagle dogs [2] = assay: 13-week repeat dose toxicity in Beagle dogs, combination with methotrexate: clinical biochemistry (ALAT, ASAT); type: in vivo; conditions: for ALAT, change as compared to the control group 1 / ASAT, change as compared to the control group 1: 25 mg Formula (II)/kg/day and/or 10/2.5 mg MTX/kg/week, p.o.
Method: For laboratory examinations blood samples were taken from the vena cephalica or vena saphena magna from animals fasted overnight. Serum samples were collected into tubes for biochemical tests. Clinical biochemistry parameters from venous blood were determined at the times listed below:
Prior to study start: all animals of a pool of 52 dogs […]
At the end of the recovery period: all 8 recovery animals included in this study
Clinical biochemistry parameters (e.g. bile acids, alanine aminotransferase=ALAT, alkaline phosphatise=aP, aspartate aminotransferase=ASAT, gamma-glutamyl-transferase=Gamma-GT, glutamate dehydrogenase=GLDH, creatine kinase=CK) were measured using KONELAB 30i instrument (Thermo Fisher Scientific, 63303 Dreieich, Germany) as U/L (unit/liter) serum.

DBA1/J mice = assay: Collagen Induced Arthritis in Mice, Arthritic Index (AI); type: in vivo; conditions: po once daily, MTX 2.5 mg/kg, Formula (II) 50 mg/kg; for Average Arthritic Index, Mean: group mean
Method: Collagen Induced Arthritis in Mice
Bovine Type II collagen solution is prepared by dissolving at 4 mg/ml in 0.01 M acetic acid at 4-8° C. with stirring overnight. Immunogen is prepared by emulsifying a 1:1 vol:vol combination of collagen solution and Complete Freund's Adjuvant (CFA) (M. tuberculosis H37Ra suspension: 4 mg/ml).
DBA1/J mice (male, 7-8 weeks) are weighed. The animals are anesthetized, injected subcutaneously into the shaved base of the tail with collagen/CFA (0.050 ml/mouse; 100 microgram/mouse collagen in CFA) using a 1 ml syringe fitted with a 25 G needle and returned to the cages.
After three weeks (21 d) the procedure is repeated, though now with incomplete Freund's adjuvant (IFA) instead of CFA.
Animals are observed for one week and macroscopic signs of arthritis are scored 3-times weekly (Monday, Wednesday, Friday: M, W, F). Each paw receives a score: • a) 0=no visible effects of arthritis; • b) 1=edema and/or erythema of 1 digit; • c) 2=edema and/or erythema of 2 digits; • d) 3=edema and/or erythema of more than 2 digits; • e) 4=severe arthritis of entire paw and digits.
Calculate Arthritic Index (AI) by addition of individual paw scores and record. (Maximum AI=16)
After one week, mice are allocated to groups (10 mice per group) to give similar mean AI values and similar ranges of individual AI values in each treatment group.
Dosing is started, PO (per oral) once daily for 14 days.
AI scores determined 3× weekly.

Beagle dogs [3] = conditions: Beagle dogs, 13 weeks oral
Excerpt: The animals were randomly allocated to five test groups employing a pseudo-random body weight stratification procedure that yielded groups with approximately equal mean body weights. […] A special focus of the study was to study the influence of the combination treatment on liver toxicity.

[4] = female, Beagle, dog, plasma, po, 10 mg/kg, Group 4 (+MTX), formula (II) 10 mg/kg, day 1, female Beagle dogs
[5] = female, Beagle, dog, plasma, po, 10 mg/kg, Group 4 (+MTX), formula (II) 10 mg/kg, week 13, female Beagle dogs
[6] = female, Beagle, dog, plasma, po, 25 mg/kg, Group 2, formula (II) 25 mg/kg alone, day 1, female Beagle dogs
[7] = female, Beagle, dog, plasma, po, 25 mg/kg, Group 2, formula (II) 25 mg/kg alone, week 13, female Beagle dogs
[8] = female, Beagle, dog, plasma, po, 25 mg/kg, Group 5 (+MTX), formula (II) 25 mg/kg, day 1, female Beagle dogs
[9] = female, Beagle, dog, plasma, po, 25 mg/kg, Group 5 (+MTX), formula (II) 25 mg/kg, week 13, female Beagle dogs
[10] = male, Beagle, dog, plasma, po, 10 mg/kg, Group 4 (+MTX), formula (II) 10 mg/kg, day 1, male Beagle dogs
[11] = male, Beagle, dog, plasma, po, 10 mg/kg, Group 4 (+MTX), formula (II) 10 mg/kg, week 13, male Beagle dogs
[12] = male, Beagle, dog, plasma, po, 25 mg/kg, Group 2, formula (II) 25 mg/kg alone, day 1, male Beagle dogs
[13] = male, Beagle, dog, plasma, po, 25 mg/kg, Group 2, formula (II) 25 mg/kg alone, week 13, male Beagle dogs
[14] = male, Beagle, dog, plasma, po, 25 mg/kg, Group 5 (+MTX), formula (II) 25 mg/kg, day 1, male Beagle dogs
[15] = male, Beagle, dog, plasma, po, 25 mg/kg, Group 5 (+MTX), formula (II) 25 mg/kg, week 13, male Beagle dogs

COc1cccc(-c2ccc(NC(=O)C3=C(C(=O)O)CCC3)c(F)c2)c1 [Formula (II)]
Toxicokinetic findings (plasma levels, interaction) ([1]; Beagle dogs, test day 1 and 85): clear dose response relationship
AUC(0-t) ([1]; female, Beagle, dog, plasma, po, 10 mg/kg): 598 µg·h/mL
AUC(0-inf) [1, 4]: 513 µg·h/mL
Cmax [1, 4]: 43000 ng/mL
half-life [1, 4]: 7.4 h
Cmax [1, 5]: 40500 ng/mL
half-life [1, 5]: 26.7 h
AUC(0-inf) [1, 6]: 773 µg·h/mL
Cmax [1, 6]: 56300 ng/mL
half-life [1, 6]: 8.6 h
AUC(0-inf) [1, 7]: 1010 µg·h/mL
Cmax [1, 7]: 66600 ng/mL
half-life [1, 7]: 11.1 h
AUC(0-inf) [1, 8]: 413 µg·h/mL
Cmax [1, 8]: 33100 ng/mL
half-life [1, 8]: 7.6 h
AUC(0-inf) [1, 9]: 1190 µg·h/mL
Cmax [1, 9]: 76300 ng/mL
half-life [1, 9]: 8.1 h
AUC(0-inf) [1, 10]: 322 µg·h/mL
Cmax [1, 10]: 30300 ng/mL
half-life [1, 10]: 6.3 h
AUC(0-inf) [1, 11]: 371 µg·h/mL
Cmax [1, 11]: 35700 ng/mL
half-life [1, 11]: 6.3 h
AUC(0-inf) [1, 12]: 289 µg·h/mL
Cmax [1, 12]: 22700 ng/mL
half-life [1, 12]: 7.8 h
AUC(0-inf) [1, 13]: 601 µg·h/mL
Cmax [1, 13]: 56900 ng/mL
half-life [1, 13]: 6.1 h
AUC(0-inf) [1, 14]: 858 µg·h/mL
Cmax [1, 14]: 60000 ng/mL
half-life [1, 14]: 8.4 h
AUC(0-inf) [1, 15]: 659 µg·h/mL
Cmax [1, 15]: 53600 ng/mL
half-life [1, 15]: 7.9 h
Changes in the biochemical parameters (Beagle dogs [2]; Beagle dogs, 13 weeks oral, serum): slight increased enzyme activities of ALAT, ASAT and GLDH as well as slight increases of the bile acid concentration in serum
ALAT, change as compared to the control group 1 (Beagle dogs [2]; Test day 37, females): None
ASAT, change as compared to the control group 1 (Beagle dogs [2]; Test day 37, females): None
ALAT, change as compared to the control group 1 (Beagle dogs [2]; Test day 37, males): none
ASAT, change as compared to the control group 1 (Beagle dogs [2]; Test day 37, males): none
ALAT, change as compared to the control group 1 (Beagle dogs [2]; Test day 93, females): None
ASAT, change as compared to the control group 1 (Beagle dogs [2]; Test day 93, females): None
ALAT, change as compared to the control group 1 (Beagle dogs [2]; Test day 93, males): None
ASAT, change as compared to the control group 1 (Beagle dogs [2]; Test day 93, males): None
Average Arthritic Index, Mean (DBA1/J mice; study day 22): 0
Arthritic Index (individual mouse) (DBA1/J mice; study day 22): 0
Average Arthritic Index, Mean (DBA1/J mice; study day 23): 0
Arthritic Index (individual mouse) (DBA1/J mice; study day 23): 0
Average Arthritic Index, Mean (DBA1/J mice; study day 24): 0
Arthritic Index (individual mouse) (DBA1/J mice; study day 24): 0
Average Arthritic Index, Mean (DBA1/J mice; study day 25): 0
Arthritic Index (individual mouse) (DBA1/J mice; study day 25): 0
Average Arthritic Index, Mean (DBA1/J mice; study day 26): 0
Arthritic Index (individual mouse) (DBA1/J mice; study day 26): 0
Average Arthritic Index, Mean (DBA1/J mice; study day 27): 0
Arthritic Index (individual mouse) (DBA1/J mice; study day 27): 0
Average Arthritic Index, Mean (DBA1/J mice; study day 28): 0.7
Arthritic Index (individual mouse) (DBA1/J mice; study day 28): 1 (3×) and 0 (4×) and 2
Average Arthritic Index, Mean (DBA1/J mice; study day 30): 0.9
Arthritic Index (individual mouse) (DBA1/J mice; study day 30): 1 (4×) and 0 (3×) and 2 and 3
Average Arthritic Index, Mean (DBA1/J mice; study day 31): 2.2
Arthritic Index (individual mouse) (DBA1/J mice; study day 31): 2 (2×) and 3 (3×) and 1 (3×) and 4
Average Arthritic Index, Mean (DBA1/J mice; study day 32): 3.6
Average Arthritic Index, Mean (DBA1/J mice; study day 33): 5.2
Arthritic Index (individual mouse) (DBA1/J mice; study day 33): 6 (2×) and 11 and 2 (2×) and 5 (3×) and 8
Average Arthritic Index, Mean (DBA1/J mice; study day 35): 5.9
Arthritic Index (individual mouse) (DBA1/J mice; study day 35): 5 (2×) and 12 and 4 (3×) and 3 and 8
Average Arthritic Index, Mean (DBA1/J mice; study day 37): 6.9
Average Arthritic Index, Mean (DBA1/J mice; study day 40): 6.9
Average Arthritic Index, Mean (DBA1/J mice; study day 42): 7.0
Average Arthritic Index, Mean (DBA1/J mice; study day 44): 7.1
Average Arthritic Index, Mean (DBA1/J mice; study day 47): 7.6
Influence on body weight, food and drinking water consumption and haematological parameters (Beagle dogs [3]): no influence
